Test results published in patent US7910065B2, “Reaction sensing in living cells” (The Charles Stark Draper Laboratory, Inc., priority 2005, dated 2011).

Key:
[1] = test system: wild type (WT) yeast containing the ERG2; assay: Optical sodium and potassium ion sensor monitoring of yeast cells stimulated with a HERG inhibitor (HERG compatibility screen), wild type; conditions: FIG. 6
Source text: (§1) The sensors of the present invention are suited to many different types of assays, or for the detection of compounds. In one exemplary application, a model cell system is used to screen for HERG compatibility. HERG (human ether-a-go-go) channels are implicated in the abnormal heart rhythms associated with Long QT Syndrome. It is believed that many compounds can block these channels and cause prolongation of the beat cycle of the heart. This abnormal rhythm can cause arrhythmia and can even lead to death. Accordingly, it is important that all drugs, regardless of therapeutic target, be screened for HERG compatibility.
(§2) Much is known genetically about yeast, and gene knock-outs are commercially available, allowing for the screening of two types of yeast: the wild type (WT) containing the ERG2, and one mutated to knock-out the ERG2 gene.
(§3) This example utilizes two cell types and two types of sensors, providing four different data signals, and the approach can be extended to an arbitrary number of sensors and cell types. Similarly, tissue can be used instead of culture.

[2] = test system: yeast mutated to knock-out the ERG2 gene; assay: Optical sodium and potassium ion sensor monitoring of yeast cells stimulated with a HERG inhibitor (HERG compatibility screen), ERG2 knock-out; conditions: FIG. 6
Source text: as §1, §2, §3

O=C(CCCN1CCC(O)(c2ccc(Cl)cc2)CC1)c1ccc(F)cc1 [Haloperidol]
change in potassium upon stimulation of the cells ([1]; potassium sensor): a change is observed | change in sodium upon stimulation of the cells ([1]; sodium sensor): a change is observed | response in potassium upon stimulation of the cells ([2]; potassium sensor): no response | response in sodium upon stimulation of the cells ([2]; sodium sensor): no response
